Experimental data as given in US7417122B2, “Mammalian galanin receptors” (Schering Corporation, priority 1997, dated 2008).
Non-standard residues stand in square brackets, D forms with d. Residues, ends and D or L forms follow the SMILES beside them.

Target: T1, rat GalR3 receptor (Rattus norvegicus, UniProt O88626)
T1 construct: expressed in transfected cells; host or cells: COS-7 cells (ATCC CRL 1651), transient electroporation with pCR 3.1; membrane preparation
T1 sequence (O88626 1-370 P53Q/R54G/T57Q/P127Q/R137C/A150G/W176L/A183R/T188A/F210L/C272I/R311C): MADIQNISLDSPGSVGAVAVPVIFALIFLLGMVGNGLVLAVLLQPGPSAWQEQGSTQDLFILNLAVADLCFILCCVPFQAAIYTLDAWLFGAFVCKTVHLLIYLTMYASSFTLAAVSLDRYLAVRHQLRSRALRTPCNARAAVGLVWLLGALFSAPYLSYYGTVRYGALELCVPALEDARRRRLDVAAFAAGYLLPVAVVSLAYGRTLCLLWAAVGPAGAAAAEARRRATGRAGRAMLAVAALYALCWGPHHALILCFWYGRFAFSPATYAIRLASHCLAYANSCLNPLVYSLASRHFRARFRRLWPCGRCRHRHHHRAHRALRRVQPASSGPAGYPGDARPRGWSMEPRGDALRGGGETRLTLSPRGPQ
Test: 125I-porcine galanin competition binding to membranes of COS-7 cells transfected with rat GalR3 receptor
Conditions: FIG. 2, 125I-porcine galanin binding to rat GalR3 membranes
Protocol: Transfection was carried out as follows. Confluent COS-7 cells (ATCC CRL 1651) grown in DMEVI supplemented with 10% fetal calfserum (FCS) with 100 units/ml penicillin and 100 μg/ml streptomycin were split 1:6 into 150 mm dishes (Nunc) three days prior to transfection. On the day of transfection, the cells were approximately 90% confluent and trypsinized off plates and washed two times with PBS without Mg^++ and Ca^++. The cells were resuspended in Krebs Ringer's buffer at a density of approximately 1.2×10^7 cells/ml. […]
To each plate, 5 ml of 5 mM Hepes buffer (pH 7.4), 0.1 mM PMSF, and 0.1 mg/ml bacitracin were added and incubated at room temperature for 15 minutes. […] Protein concentrations were determined using a […] (bicinchoninic acid) method (Pierce, Rockford, Ill.).
Binding of ^125I-porcine-galanin to the membrane preparations was performed in a buffer containing 25 mM Tris-Cl (pH7.4), 1% bovine serim albumin (w/v), 0.1% bacitracin, 2 μg/ml leupeptin and 10 mM MgCl2. […] All data were analyzed using non-linear regression software (Prism, GraphPad, San Diego, Calif.), and the Ki was calculated using the method of Cheng and Prusoff [Biochem. Pharmacol. 22:3099-3108 (1973)].

Row | Compound | competitive inhibition of the labeled galanin
1 | CC(C)C[C@H](NC(=O)[C@H](CC(C)C)NC(=O)[C@@H](Cc1c[nH]c2ccccc12)NC(=O)[C@H](Cc1ccccc1)NC(=O)[C@@H](Cc1c[nH]c2ccccc12)NC(=O)[C@H](CCC(N)=O)NC(=O)[C@H](CCC(N)=O)NC(=O)[C@@H]1CCCN1C(=O)[C@H](CCCCN)NC(=O)[C@@H]1CCCN1C(=O)[C@@H](CCCNC(=N)N)NC(=O)[C@@H]1CCCN1C(=O)CNC(=O)[C@H](CC(C)C)NC(=O)[C@H](CC(C)C)NC(=O)[C@H](Cc1ccc(O)cc1)NC(=O)CNC(=O)[C@H](C)NC(=O)[C@H](CO)NC(=O)[C@H](CC(N)=O)NC(=O)[C@H](CC(C)C)NC(=O)[C@@H](NC(=O)[C@H](Cc1c[nH]c2ccccc12)NC(=O)CN)[C@@H](C)O)C(N)=O [chimeric galanin peptide C7] (H-GWTLNSAGYLLGP[dR]PKPQQ[dW]F[dW]LL-NH2; N-terminus and C-terminus assumed) | competitive inhibitors
2 | CC[C@H](C)[C@H](NC(=O)[C@H](C)NC(=O)[C@H](Cc1c[nH]cn1)NC(=O)[C@@H]1CCCN1C(=O)CNC(=O)[C@H](CC(C)C)NC(=O)[C@H](CC(C)C)NC(=O)[C@H](Cc1ccc(O)cc1)NC(=O)CNC(=O)[C@H](C)NC(=O)[C@H](CO)NC(=O)[C@H](CC(N)=O)NC(=O)[C@H](CC(C)C)NC(=O)[C@@H](NC(=O)[C@@H](N)Cc1c[nH]c2ccccc12)[C@@H](C)O)C(=O)N[C@@H](CC(=O)O)C(=O)N[C@@H](CC(N)=O)C(=O)N[C@@H](Cc1c[nH]cn1)C(=O)N[C@@H](CCCNC(=N)N)C(=O)N[C@@H](CO)C(=O)N[C@@H](Cc1ccccc1)C(=O)N[C@@H](CO)C(=O)N[C@@H](CC(=O)O)C(=O)N[C@@H](CCCCN)C(=O)N[C@@H](Cc1c[nH]cn1)C(=O)NCC(=O)N[C@@H](CC(C)C)C(=O)N[C@H](C(N)=O)[C@@H](C)O [galanin(2-29)] | competitive inhibitors
